# Results: patent US10960005B2, “Treatment of relapsed and/or refractory solid tumors and non-hodgkin's lymphomas” (CELGENE QUANTICEL RESEARCH, INC., priority 2016, dated 2021)
# Read-outs that look alike come from different tables or passages of the source.
# How the values were obtained:
# [1] = 4-week toxicity study (no recovery period) in dogs (QW/Q2W); format: in vivo; conditions: for AUC0-96 / Cmax: Dogs
# Source text: All animals survived to the terminal sacrifice.
# NCI-H841 SCLC cell line = experiment: Antiproliferative activity, NCI-H841; format: cell-based, human; conditions: 3D assay; Calcein AM
# [2] = tested on: GA0087 gastric NEC patient-derived xenograft; experiment: Efficacy in GA0087 gastric neuroendocrine carcinoma PDX model; conditions: for Median Tumor Volumes Day 46: head prints Day 46, title Day 53
# [3] = Excretion in bile duct cannulated rats (IV); format: in vivo; conditions: 24-hour period post dosing
# NCI-H69 SCLC cell line = experiment: Antiproliferative activity, NCI-H69; format: cell-based, human; conditions: 3D assay; Calcein AM
# [4] = tested on: LXFS 573 SCLC patient-derived xenograft; experiment: Efficacy in LXFS 573 SCLC PDX model; format: in vivo, mice; conditions: for % TGI / TGI: Day 28
# [5] = tested on: gene expression (ST18, FREM2) in MKL-1 cells; experiment: Gene expression modulation (RNA-seq, qRT-PCR) in cultured MKL-1 cells; format: cell-based, human; conditions: 10 and 100 nM, three days
# Description: (§1) 22, 66, or 200 nM for qRT-PCR analysis.
# (§2) Libraries were sequenced on an Illumina NextSeq® 500 System (Illumina, San Diego, Calif.) using 75 base paired-end RNA sequencing. Sequenced reads were mapped to the hg19 human genome build and differential expression was determined by analysis of variance across all replicates relative to the vehicle control
# (§3) Sequenced reads were mapped to the hg19 human genome build using the Spliced Transcripts Alignment to a Reference (STAR) software tool (©Alexander Dobin, 2009-2016) and transcript counts were normalized using the Empirical Analysis of Digital Gene Expression Data in R (edgeR) and Differential gene expression analysis based on the negative binomial distribution (DESeq2) software tools (©Bioconductor, 2003-2017). Differential expression was determined by analysis of variance across all replicates relative to the vehicle control.
# [6] = tested on: LXFS 615 SCLC patient-derived xenograft; conditions: 5 mg base/kg; plasma after final dose
# [7] = 4-week toxicity study with 4-week recovery in mice; format: in vivo; conditions: for AUC0-24 / Cmax: Mice
# [8] = Pharmacokinetics after single IV and oral dose, Cynomolgus monkeys; format: in vivo; conditions: Monkey, male
# Description: AUClast=area under the plasma concentration-time curve from time zero to time of last measurable concentration; Cmax=maximum plasma concentration; F=oral bioavailability; hr=hour, PK=pharmacokinetic; SD=standard deviation; t1/2 z=apparent half-life of the terminal phase of the concentration-time curve; tmax=time of Cmax. In mouse, PK parameters were determined using composite plasma samples obtained from n=3animals/time point. In other species, PK parameters are from n=3 animals and values shown are mean and SD (in parentheses).
# [9] = Hemodynamic and ECG parameters in anesthetized guinea pigs (IV infusion); conditions: for mean plasma concentration at end of infusion: 10 minutes
# Description: The effects of Compound Aon hemodynamic and ECG parameters were examined in anesthetized, male Dunkin Hartley guinea pigs. […] An escalating dose design was utilized in which doses were administered sequentially at 20-minute intervals. Animals were monitored throughout the experiment.
# NCI-H1417 SCLC xenograft = conditions: for Median Tumor Volumes Diff.: Day 0 vs Day 65
# [10] = tested on: H3K4me2 at ST18 and FREM2 gene loci in MS-1 cells; experiment: ChIP-seq LSD1 occupancy and H3K4me2 status, MS-1; format: cell-based, human; conditions: 100 nM, 3 days
# [11] = QW 1.25 mg oral dose, 60-kg human, 80% oral bioavailability assumed
# [12] = tested on: gene expression (ST18, FREM2) in MS-1 cells; experiment: Gene expression modulation (RNA-seq, qRT-PCR) in cultured MS-1 cells; format: cell-based, human; conditions: 10 and 100 nM, three days
# Description: as §1, §2, §3
# [13] = Day 1, 0.125 mg base/kg/dose oral QW, Sexes Combined
# [14] = Day 1, 0.25 mg base/kg/dose oral QW, M
# [15] = Day 1, 0.5 mg base/kg/dose oral Q2W, M
# [16] = Day 15, 0.125 mg base/kg/dose oral QW, F
# [17] = Day 15, 0.125 mg base/kg/dose oral QW, M
# [18] = Day 15, 0.125 mg base/kg/dose oral QW, Sexes Combined
# [19] = 5 mg base/kg/dose QD×5/week, females
# [20] = 5 mg base/kg/dose QD×5/week, males
# [21] = 25 mg base/kg/dose QOD×3/week, females
# [22] = 45 mg base/kg/dose QD×5/week, females
# [23] = 45 mg base/kg/dose QD×5/week, males
# [24] = Day 1, 15 mg base/kg/dose oral, 5 days on/2 days off, F
# [25] = Day 26, 5 mg base/kg/dose oral, 5 days on/2 days off, F
# [26] = Day 26, 5 mg base/kg/dose oral, 5 days on/2 days off, M
# [27] = Day 26, 15 mg base/kg/dose oral, 5 days on/2 days off, M
# [28] = Day 26, 25 mg base/kg/dose oral, QOD × 3/week, F
# [29] = Day 26, 25 mg base/kg/dose oral, QOD × 3/week, M
# [30] = Day 26, 45 mg base/kg/dose oral, 5 days on/2 days off, F
# [31] = Day 26, 45 mg base/kg/dose oral, 5 days on/2 days off, M
# [32] = after escalating IV doses to 20 mg base/kg
smiles,measurement,setting,value
COc1ccc(-c2c(-c3ccc(C#N)c(F)c3)nc(N3CCC(N)CC3)n(C)c2=O)cc1F [Compound A],combined Day 15 mean AUC,[1]; 0.125 mg base/kg/dose QW,127 ng·h/mL
same,combined Day 15 mean Cmax,[1]; 0.125 mg base/kg/dose QW,5.26 ng/mL
same,combined Day 15 mean AUC,[1]; 0.25 mg base/kg/dose QW,287 ng·h/mL
same,combined Day 15 mean Cmax,[1]; 0.25 mg base/kg/dose QW,11.0 ng/mL
same,combined Day 15 mean AUC,[1]; 0.5 mg base/kg/dose Q2W,636 ng·h/mL
same,combined Day 15 mean Cmax,[1]; 0.5 mg base/kg/dose Q2W,22.0 ng/mL
same,AUC0-96,"[1]; Day 1, 0.125 mg base/kg/dose oral QW, F",127 ng·h/mL
same,AUC0-96,[1]; [13],120 ng·h/mL
same,Cmax,[1]; [13],5.79 ng/mL
same,AUC0-96,[1]; [14],335 ng·h/mL
same,Cmax,[1]; [14],11.9 ng/mL
same,Cmax,"[1]; Day 1, 0.25 mg base/kg/dose oral QW, Sexes Combined",12.0 ng/mL
same,Cmax,"[1]; Day 1, 0.5 mg base/kg/dose oral Q2W, F",26.6 ng/mL
same,AUC0-96,[1]; [15],762 ng·h/mL
same,Cmax,[1]; [15],24.0 ng/mL
same,Cmax,"[1]; Day 1, 0.5 mg base/kg/dose oral Q2W, Sexes Combined",25.3 ng/mL
same,AUC0-96,[1]; [16],141 ng·h/mL
same,Cmax,[1]; [16],5.54 ng/mL
same,AUC0-96,[1]; [17],107 ng·h/mL
same,Cmax,[1]; [17],4.89 ng/mL
same,AUC0-96,[1]; [18],127 ng·h/mL
same,Cmax,[1]; [18],5.26 ng/mL
same,Cmax,"[1]; Day 15, 0.25 mg base/kg/dose oral QW, Sexes Combined",11.0 ng/mL
same,Cmax,"[1]; Day 15, 0.5 mg base/kg/dose oral Q2W, Sexes Combined",22.0 ng/mL
same,treatment-related adverse finding,"[1]; single female, 0.25 mg base/kg/dose QW",Moderate acute inflammation in the ileum and marked acute inflammation in the cecum
same,IC50,NCI-H841 SCLC cell line,> 500 µM
same,Median Tumor Volumes Day 46,[2]; 1.5 mg base/kg PO QD × 53,706.4 mm^3
same,Median Tumor Volumes Diff.,[2]; 5 mg base/kg PO QD × 53,836.3 mm^3
same,Median Tumor Volumes Day 46,[2]; 5 mg base/kg PO QD × 53,673.2 mm^3
same,dose excreted intact in urine,[3],8.5 % of dose
same,IC50,NCI-H69 SCLC cell line,7 µM
same,% TGI,[4]; 5 mg base/kg PO QD × 28,72%
same,TGI,[4]; 5 mg base/kg oral,78%
same,TGI,[4]; 7.5 mg base/kg oral,58%
same,% TGI,[4]; 10 mg base/kg PO QD × 28,71%
same,TGI,[4]; 10 mg/kg oral,71%
same,mean body weight losses,"[4]; mouse, in vivo",≤ 3%
same,ST18 and FREM2 gene expression changes (upregulated),[5],at least 2 fold
same,AUC0-24,[6],"1,617 ng·hr/mL"
same,mean steady state AUC0-24,[7]; [19],"2,410 ng·hr/mL"
same,mean steady state Cmax,[7]; [19],276 ng/mL
same,mean steady state AUC0-24,[7]; [20],"2,010 ng·hr/mL"
same,mean steady state Cmax,[7]; [20],276 ng/mL
same,mean steady state AUC0-24,[7]; [21],"17,500 ng·hr/mL"
same,mean steady state Cmax,[7]; [21],"1,740 ng/mL"
same,mean steady state Cmax,"[7]; 25 mg base/kg/dose QOD×3/week, males","1,450 ng/mL"
same,animals sacrificed in moribund condition,"[7]; 45 mg base/kg/dose QD×5/week, 4 males and 1 female, TK subgroup",Five
same,mean steady state AUC0-24,[7]; [22],"26,500 ng·hr/mL"
same,mean steady state Cmax,[7]; [22],"2,130 ng/mL"
same,mean steady state AUC0-24,[7]; [23],"29,000 ng·hr/mL"
same,mean steady state Cmax,[7]; [23],"2,620 ng/mL"
same,AUC0-24,"[7]; Day 1, 5 mg base/kg/dose oral, 5 days on/2 days off, F",1500 ng·h/mL
same,Cmax,"[7]; Day 1, 5 mg base/kg/dose oral, 5 days on/2 days off, M",230 ng/mL
same,AUC0-24,[7]; [24],9680 ng·h/mL
same,Cmax,[7]; [24],850 ng/mL
same,AUC0-24,"[7]; Day 1, 15 mg base/kg/dose oral, 5 days on/2 days off, M",13000 ng·h/mL
same,AUC0-24,[7]; [25],2410 ng·h/mL
same,Cmax,[7]; [25],276 ng/mL
same,AUC0-24,[7]; [26],2010 ng·h/mL
same,Cmax,[7]; [26],275 ng/mL
same,AUC0-24,[7]; [27],7960 ng·h/mL
same,Cmax,[7]; [27],628 ng/mL
same,AUC0-24,[7]; [28],17500 ng·h/mL
same,Cmax,[7]; [28],1740 ng/mL
same,AUC0-24,[7]; [29],17800 ng·h/mL
same,Cmax,[7]; [29],1450 ng/mL
same,AUC0-24,[7]; [30],26500 ng·h/mL
same,Cmax,[7]; [30],2130 ng/mL
same,AUC0-24,[7]; [31],29000 ng·h/mL
same,Cmax,[7]; [31],2620 ng/mL
same,STD10,[7]; QD ×5/week schedule,≥ 45 mg base/kg/dose
same,AUC∞,[8]; single IV 1 mg base/kg,983 ng·h/mL
same,CL,[8]; single IV 1 mg base/kg,18 mL/min/kg
same,Vss,[8]; single IV 1 mg base/kg,17.119 L/kg
same,"t1/2,z",[8]; single IV 1 mg base/kg,12.0 h
same,% F,[8]; single oral 5 mg base/kg,82%
same,AUClast,[8]; single oral 5 mg base/kg,3618 ng·h/mL
same,Cmax,[8]; single oral 5 mg base/kg,187 ng/mL
same,"t1/2,z",[8]; single oral 5 mg base/kg,12.9 h
same,tmax,[8]; single oral 5 mg base/kg,6.0 h
same,mean plasma concentration at end of infusion,[9]; 15 mg base/kg IV,4269 ng/mL
same,mean plasma concentration at end of infusion,[9]; 20 mg base/kg IV,6707 ng/mL
same,maximum decrease in HR vs vehicle,"[9]; 20 mg base/kg IV, 9 minutes into 10-minute infusion",19%
same,decrease in heart rate at end of monitoring period,[9]; [32],18%
same,increase of QTcB interval at end of monitoring period,[9]; [32],10%
same,mean body weight gain by end of study,NCI-H1417 SCLC xenograft; 2.5 mg base/kg,1%
same,Median Tumor Volumes Diff.,NCI-H1417 SCLC xenograft; 2.5 mg base/kg PO QD × 65,69.9 mm^3
same,mean body weight gain by end of study,NCI-H1417 SCLC xenograft; 5 mg base/kg,7.5%
same,Median Tumor Volumes Diff.,NCI-H1417 SCLC xenograft; 5 mg base/kg PO QD × 65,92.3 mm^3
same,H3K4me2 at the LSD1 binding site of ST18 gene,[10],increased H3K4me2
same,predicted steady state systemic exposure (AUCt),[11],29 ng·h/mL
same,ST18 and FREM2 gene expression changes (upregulated),[12],at least 2 fold
